Results as given in US5001235A, “Antibiotic beta-lactams containing a pyridone carboxylic acid or acid derivative” (The Upjohn Company, priority 1989, dated 1991).
In brackets after ≈: the same amount, converted by molar mass. Where a name gives a salt, the structure may show the parent alone. Read-outs that look alike come from different tables or passages of the source.

How the values were obtained:
Experiment in all cases: MIC by agar dilution (Mueller Hinton Agar)
Assay type in all cases: cell-based
[1] = tested on: Citrobacter freundli; details: Culture Number 3507, MHA, 35° C., 20 hours, read-out: Minimum Inhibitory Concentration
Experimental: (§1) The compounds of this invention and their respective pharmacologically acceptable salts have antibiotic activity against a variety of gram-negative bacteria including Escherichia coli, Klebsiella pneumoniae, and Pseudomonas aeruginosa. The compounds are useful for treating bacterial infections in animals, including and most preferably humans. Compounds of the invention are tested for in vitro antimicrobial activity using standard testing procedures such as the determination of minimum inhibitory concentration (MIC) by agar dilution as described in "Methods for Dilution Antimicrobial Susceptibility Tests for Bacteria That Grow Aerobically" (M7-A) Published December 1985 by the National Committee for Clinical Laboratory Standards, 771 East Lancaster Avenue, Villanova, Pa. 19084. Briefly, MIC values are determined in unsupplemented Mueller Hinton Agar (MHA). The compounds tested are diluted serially into molten MHA at 47° C. The agar is poured into petri dishes and allowed to harden. The various bacteria used for testing are grown overnight on MHA at 35° C. and transferred to Tryptiease Soy Broth (TSB) until a turbidity of 0.5 McFarland standard is obtained. The bacteria are diluted one to 20 in TSB and inoculated on the plates (1 μl using a Steers replicator). […] The MIC test results of two typical compounds of this invention, Compound 14 which is (3S)-3-[2-(2-Amino-4-thiazolyl)-Z-(2)-carboxyisopropyloxyimino)acetamido]- 1-[(3-carboxy-4-pyridon-6-yl)-carbonylamino-1-(2-imidazolidone-3-yl)sulfonylaminocarbonyl]-2-azetidinone trisodium salt and Compound 17 which is (3S)-3-[2-(2-Amino-4-thiazolyl)-Z-(2)-(carboxyisopropyloxyamino)acetamido]-1-[(3-hydroxyaminocarbonyl-4-pyridon-6-yl)carbonylamino-1-(2-imidazolidone-3-yl)sulfonylaminocarbonyl]-2-azetidinone, are given in Table I.

[2] = tested on: Proteus vulgaris; details: Culture Number 9679, MHA, 35° C., 20 hours, read-out: Minimum Inhibitory Concentration
Experimental: as §1

[3] = tested on: Streptococcus faecalis; details: Enterococcus faecalis; Culture Number 694; MHA, 35° C., 20 hours; read-out: Minimum Inhibitory Concentration
Experimental: as §1

[4] = tested on: Serratia marcescens; details: Culture Number 6888, MHA, 35° C., 20 hours, read-out: Minimum Inhibitory Concentration
Experimental: as §1

[5] = tested on: Enterobacter cloacae; details: 20 h, 35° C., read-out: Minimum Inhibitory Concentration
Experimental: as §1

[6] = tested on: Klebsiella oxytoca; details: 20 h, 35° C., read-out: Minimum Inhibitory Concentration
Experimental: as §1

[7] = tested on: Klebsiella pneumoniae; details: Culture Number 58, MHA, 35° C., 20 hours, read-out: Minimum Inhibitory Concentration
Experimental: as §1

[8] = tested on: Streptococcus pneumoniae; details: Culture Number 41, MHA, 35° C., 20 hours, read-out: Minimum Inhibitory Concentration
Experimental: as §1

[9] = tested on: Escherichia coli; details: 20 h, 35° C., read-out: Minimum Inhibitory Concentration
Experimental: as §1

[10] = tested on: Staphylococcus aureus; details: MHA, 35° C., 20 hours; for MIC: Staphylococcus aureus, Culture Number 9218, read-out: Minimum Inhibitory Concentration
Experimental: as §1

[11] = tested on: Pseudomonas aeruginosa
Experimental: as §1

[12] = tested on: Streptococcus pyogenes; details: Culture Number 152, MHA, 35° C., 20 hours, read-out: Minimum Inhibitory Concentration
Experimental: as §1

[13] = 20 h, Culture Number 231, MHA, 35° C., 20 hours, read-out: Minimum Inhibitory Concentration
[14] = 20 h, Culture Number 9191, MHA, 35° C., 20 hours, read-out: Minimum Inhibitory Concentration

Structure (SMILES) | MIC [1] | MIC [2] | MIC [3] | MIC [4] | MIC ([5]; Culture Number 9381, MHA) | MIC ([5]; Culture Number 9382, MHA) | MIC ([6]; Culture Number 9383, MHA) | MIC ([6]; Culture Number 9384, MHA) | MIC [7] | MIC [8] | MIC ([9]; Culture Number 9379, MHA) | MIC ([9]; Culture Number 9380, MHA) | MIC ([9]; Culture Number 9451, MHA) | Minimum Inhibitory Concentration ([10]; Culture Number 3665) | Minimum Inhibitory Concentration ([10]; Culture Number 6685) | MIC [10] | MIC [11, 13] | MIC [11, 14] | MIC [12] | MIC ([11]; pseudomonas aeruginosa Culture No. 231, given in text for Compound 18, read-out: M/C)
CC(C)(O/N=C(\C(=O)N[C@H]1CN(C(=O)NS(=O)(=O)N2CCN(NC(=O)c3cc(=O)c(C(=O)NO)c[nH]3)C2=O)C1=O)c1csc(N)n1)C(=O)O [Compound 17, (3S)-3-[2-(2-Amino-4-thiazolyl)-Z-(2)-(carboxyisopropyloxyamino)acetamido]-1-[(3-hydroxyaminocarbonyl-4-pyridon-6-yl)carbonylamino-1-(2-imidazolidone-3-yl)sulfonylaminocarbonyl]-2-azetidinone] | 0.25 mg/L (≈ 0.344 µM) | 0.125 mg/L (≈ 0.172 µM) | > 128 mg/L | 2 mg/L (≈ 2.75 µM) | 64 mg/L (≈ 88 µM) | 2 mg/L (≈ 2.75 µM) | 4 mg/L (≈ 5.5 µM) | 0.5 mg/L (≈ 0.687 µM) | 0.5 mg/L (≈ 0.687 µM) | 64 mg/L (≈ 88 µM) | 0.5 mg/L (≈ 0.687 µM) | 0.5 mg/L (≈ 0.687 µM) | 0.25 mg/L (≈ 0.344 µM) | > 128 µg/mL | > 128 µg/mL | > 128 mg/L | 4 mg/L (≈ 5.5 µM) | 4 mg/L (≈ 5.5 µM) | 4 mg/L (≈ 5.5 µM) | –
CC(C)(O/N=C(\C(=O)N[C@H]1CN(C(=O)NS(=O)(=O)N2CCN(NC(=O)c3cc(=O)c(C(=O)O)c[nH]3)C2=O)C1=O)c1csc(N)n1)C(=O)O [Compound 14, (3S)-3-[2-(2-Amino-4-thiazolyl)-Z-(2)-carboxyisopropyloxyimino)acetamido]-1-[(3-carboxy-4-pyridon-6-yl)-carbonylamino-1-(2-imidazolidone-3-yl)sulfonylaminocarbonyl]-2-azetidinone trisodium salt] | 0.25 mg/L | 0.06 mg/L | > 128 mg/L | 0.5 mg/L | 64 mg/L | 0.5 mg/L | 4 mg/L | 0.25 mg/L | 0.5 mg/L | 64 mg/L | 0.25 mg/L | 0.125 mg/L | 0.125 mg/L | > 128 µg/mL | > 128 µg/mL | > 128 mg/L | 0.5 mg/L | 1 mg/L | 4 mg/L | –
CC(C)(O/N=C(\C(=O)N[C@H]1CN(C(=O)NS(=O)(=O)N2CCN(NC(=O)c3cc(=O)c(C(N)=O)c[nH]3)C2=O)C1=O)c1csc(N)n1)C(=O)O [Compound 18] | – | – | – | – | – | – | – | – | – | – | – | – | – | – | – | – | – | – | – | 8 mg/L (≈ 11.2 µM)
